Experiments:
[1] = system: CT26 MSH2-/- MMRd cells; assay: viability assay of MMR-deficient MSH2 KO CT26 cells; type: cell-based, mouse; conditions: MSH2 KO cells compared with parental CT26
[2] = system: CT26 colon cancer cells; assay: pre-treated CT26 cells implanted in mice randomized to anti PD-1 or IgG isotype control; type: in vivo, mouse
Excerpt: FIGS. 4A-B. Treatment of colon cancer cells with TMZ and cisplatin induces a high frameshift load leading to the spontaneous immuno-rejection of tumors in a preclinical mouse model. FIG. 4A. […] Treatment with either anti PD-1 or the IgG isotype control was commenced when the tumors reached a volume of 200 mm^3. […] The MSH2 KO cell line was used as a positive control for PD-1 blockade. FIG. 4B. Tumors were subjected to whole exome sequencing at 250x and immunoediting was studied by comparing mutation losses before and after engraftment.
Experiments were performed to examine the effect of PD-1 blockade on the growth of tumors generated following injection of mice with tumor cells that had been pre-treated with either a vehicle control, TMZ alone, cisplatin alone, or TMZ/CDDP combination. 1 million cells from control or treatment groups (pre-treated for 8 weeks) were implanted subcutaneously into mice (n=10) and mice were then randomly assigned to either an anti PD-1 treatment group (treated with anti PD-1 at 6 mg/kg twice weekly when tumor reached 200 mm^3) or an IgG isotype control group. CT26 MSH2 KO cells were used as a positive control (FIG. 4). […] For tumors generated following injection of cells pre-treated with the combination of both temozolomide and cisplatin, out of 10 implanted tumors only one was not rejected (9 out of 10 were rejected). […]

[3] = system: CT26 colon cancer cell line
Procedure: CT26 cells were treated for 8 weeks by low dose TMZ, CDDP or TMZ/CDDP combination (drugs were removed one week before the experiment).

[NH2][Pt]([NH2])([Cl])[Cl] [CDDP, cisplatin]
cytotoxicity [1]: Higher activity
effect of PD-1 blockade compared with isotype control on tumors from pre-treated cells ([2]; anti PD-1 6 mg/kg twice weekly from 200 mm^3): no effect of PD-1 blockade
tumor growth compared to control ([2]; cells pre-treated 8 weeks, 1 week wash out): no significant difference in tumor growth compared to control
sensitivity of CT26 cells to single agent [3]: sensitive

— patent US20230056846A1, “METHODS AND COMPOSITIONS FOR CANCER IMMUNOTHERAPY” (MEMORIAL SLOAN KETTERING CANCER CENTER, priority 2020, published 2023)
